In publication PMC10377601, “Side Chain-Modified Benzothiazinone Derivatives with Anti-Mycobacterial Activity” (Biomedicines, 2023):
Converted amounts (≈) assume the structure as drawn.

System: M. tuberculosis H37Rv
Experiment: MIC determination by microplate alamar blue assay (MABA)
Type: cell-based
Settings: Mycobacterium tuberculosis, Mtb H37Rv, MABA

Compound	MIC (168 h) [µM]	MIC [µM]
CN(Cc1cn(C2CCCCC2)nn1)c1nc(=O)c2cc(C(F)(F)F)cc([N+](=O)[O-])c2s1 [Compound 1, 2-{[(1-cyclohexyl-1H-1,2,3-triazol-4-yl)methyl](methyl)amino}-BTZ]	0.032 (≈ 0.015 µg/mL)	0.032 (≈ 0.015 µg/mL)
CN(Cc1cn(-c2ccncc2)nn1)c1nc(=O)c2cc(C(F)(F)F)cc([N+](=O)[O-])c2s1 [Compound 5]	–	0.047 (≈ 0.0218 µg/mL)
CN(Cc1cn(-c2cccnc2)nn1)c1nc(=O)c2cc(C(F)(F)F)cc([N+](=O)[O-])c2s1 [Compound 6]	–	0.17 (≈ 0.0788 µg/mL)
CN(Cc1cn(-c2ccc(-c3ccccc3)cc2)nn1)c1nc(=O)c2cc(C(F)(F)F)cc([N+](=O)[O-])c2s1 [Compound 7]	–	0.44 (≈ 0.237 µg/mL)
CN(Cc1cn(-c2ccc3ccccc3c2)nn1)c1nc(=O)c2cc(C(F)(F)F)cc([N+](=O)[O-])c2s1 [Compound 8]	–	0.057 (≈ 0.0292 µg/mL)
CN(Cc1cn(-c2cccc3ccccc23)nn1)c1nc(=O)c2cc(C(F)(F)F)cc([N+](=O)[O-])c2s1 [Compound 9]	–	0.217 (≈ 0.111 µg/mL)
CN(Cc1cn(-c2ccc(F)cc2)nn1)c1nc(=O)c2cc(C(F)(F)F)cc([N+](=O)[O-])c2s1 [Compound 12]	0.012 (≈ 0.00576 µg/mL)	0.012 (≈ 0.00576 µg/mL)
CN(Cc1cn(-c2cccc(F)c2)nn1)c1nc(=O)c2cc(C(F)(F)F)cc([N+](=O)[O-])c2s1 [Compound 13]	0.008 (≈ 0.00384 µg/mL)	0.008 (≈ 0.00384 µg/mL)
CN(Cc1cn(-c2ccccc2F)nn1)c1nc(=O)c2cc(C(F)(F)F)cc([N+](=O)[O-])c2s1 [Compound 14]	0.27 (≈ 0.13 µg/mL)	0.27 (≈ 0.13 µg/mL)
CN(Cc1cn(-c2cccc(Cl)c2)nn1)c1nc(=O)c2cc(C(F)(F)F)cc([N+](=O)[O-])c2s1 [Compound 15]	0.014 to 0.207 (≈ 0.00696 to 0.103 µg/mL)	0.014 (≈ 0.00696 µg/mL)
CN(Cc1cn(-c2cccc(Br)c2)nn1)c1nc(=O)c2cc(C(F)(F)F)cc([N+](=O)[O-])c2s1 [Compound 16]	0.014 to 0.207 (≈ 0.00758 to 0.112 µg/mL)	0.055 (≈ 0.0298 µg/mL)
CN(Cc1cn(-c2cccc(I)c2)nn1)c1nc(=O)c2cc(C(F)(F)F)cc([N+](=O)[O-])c2s1 [Compound 17]	0.014 to 0.207 (≈ 0.00824 to 0.122 µg/mL)	0.133 (≈ 0.0782 µg/mL)
COc1cccc(-n2cc(CN(C)c3nc(=O)c4cc(C(F)(F)F)cc([N+](=O)[O-])c4s3)nn2)c1 [Compound 18]	0.014 to 0.207 (≈ 0.00689 to 0.102 µg/mL)	0.12 (≈ 0.0591 µg/mL)
Cc1cccc(-n2cc(CN(C)c3nc(=O)c4cc(C(F)(F)F)cc([N+](=O)[O-])c4s3)nn2)c1 [Compound 19, 2-{methyl[1-(m-tolyl)-1H-1,2,3-triazol-4-yl](methyl)amino}-BTZ]	0.014 to 0.207 (≈ 0.00667 to 0.0986 µg/mL)	0.061 (≈ 0.0291 µg/mL)
CN(Cc1cn(-c2cccc(C(F)(F)F)c2)nn1)c1nc(=O)c2cc(C(F)(F)F)cc([N+](=O)[O-])c2s1 [Compound 20]	0.014 to 0.207 (≈ 0.00743 to 0.11 µg/mL)	0.04 (≈ 0.0212 µg/mL)
CN(Cc1cn(-c2cccc(C#N)c2)nn1)c1nc(=O)c2cc(C(F)(F)F)cc([N+](=O)[O-])c2s1 [Compound 21, 3-{4-[(methyl(8-nitro-4-oxo-6-(trifluoromethyl)-4H-benzo[e][1,3]thiazin-2-yl)amino)methyl)-1H-1,2,3-triazol-1-yl)benzonitrile]	0.014 to 0.207 (≈ 0.00682 to 0.101 µg/mL)	0.207 (≈ 0.101 µg/mL)
CN(Cc1cn(-c2ccc(F)c(F)c2)nn1)c1nc(=O)c2cc(C(F)(F)F)cc([N+](=O)[O-])c2s1 [Compound 22]	< 0.023	0.014 (≈ 0.00698 µg/mL)
CN(Cc1cn(-c2cc(F)cc(F)c2)nn1)c1nc(=O)c2cc(C(F)(F)F)cc([N+](=O)[O-])c2s1 [Compound 23]	< 0.023	0.016 (≈ 0.00797 µg/mL)
CN(Cc1cn(-c2ccc(F)cc2F)nn1)c1nc(=O)c2cc(C(F)(F)F)cc([N+](=O)[O-])c2s1 [Compound 25]	–	0.023 (≈ 0.0115 µg/mL)
CN(Cc1nnc(-c2cccc(F)c2)o1)c1nc(=O)c2cc(C(F)(F)F)cc([N+](=O)[O-])c2s1 [Compound 38]	–	0.006 (≈ 0.00289 µg/mL)
CN(Cc1nnc(-c2ccc(F)cc2)o1)c1nc(=O)c2cc(C(F)(F)F)cc([N+](=O)[O-])c2s1 [Compound 39]	–	0.006 (≈ 0.00289 µg/mL)
CN(Cc1nnc(-c2cccc(F)c2)s1)c1nc(=O)c2cc(C(F)(F)F)cc([N+](=O)[O-])c2s1 [Compound 41]	–	0.024 (≈ 0.0119 µg/mL)
CN(Cc1nnc(-c2ccc(F)cc2)s1)c1nc(=O)c2cc(C(F)(F)F)cc([N+](=O)[O-])c2s1 [Compound 42]	–	0.026 (≈ 0.0129 µg/mL)
